# Experimental data as given in US5373012A, “5-fluoro-2,4,6-pyrimidinetriamine compounds” (The Upjohn Company, priority 1993, dated 1994).
# Several values for one entry are separate records, joined by “and”; a condition that tells them apart may be missing. Equal values may be shown once.
# Key:
# [1] = hair growth in stumptail macaque monkeys (balding scalp, hair weight change from baseline); assay type: in vivo, stumptail macaque (Macaca specoisa) monkeys; conditions: Table III; topical 100 mM in 50% propylene glycol/50% ethanol, sixteen weeks; vehicle -1.8 ± 2.7; mean±SEM
# Description: The 5-fluoro minoxidil compounds were evaluated in the macaque monkey models and show significant hair growth results.
# Thirteen stumptail macaque (Macaca specoisa) monkeys (mixed sexes) were assigned to vehicle control and drug treated groups on the basis of baseline hair weight data.
# 1. Topical 50:50 vehicle (N=7)
# The control consisted of 50% propylene glycol, 50% ethanol. The experimental composition consisted of a 100 mM concentration of topical 5-fluoro minoxidil formulated in the control vehicle. Immediately prior to the dosing phase of the study, hair was removed from a 1 inch square area (identified by four tattoos) in the center of the balding scalp. This hair collection was the baseline hair growth determination prior to the beginning of treatment. Approximately 250 μL of vehicle or 100 mM 5-fluoro minoxidil (prepared in vehicle)were topically administered to the tattooed area of the scalp. The monkeys were dosed once per day, five days per week for sixteen weeks.
# At four week intervals throughout the dosing phase of the study, each monkey was shaved and the hair was collected and weighed. The body weight data (at baseline and during assay) were analyzed by the nonparametric Wilcoxon rank-sum test. Differences were significant at p<0.05. The hair weight data (mean±SEM) at each 4 week collection for vehicle and treatment groups were expressed as the change from baseline. […]
# [2] = transdermal absorption: urinary excretion of drug after topical application in rats; assay type: in vivo; conditions: for AVERAGE of total micrograms excreted: average of three rats, urine over 24 hours on fifth day; for AVERAGE of total micrograms excreted / TOTAL MICROGRAMS EXCRETED: 50/30/20 propylene glycol/ethanol/water; for TOTAL MICROGRAMS EXCRETED: individual rats 1-3, urine over 24 hours on fifth day after four days topical treatment
# Description: The ability of the 5-fluoro minoxidil to be absorbed in transdermal applications was measured versus minoxidil as a control. Three rats were treated with each compound for four days and on the fifth day their urine was collected over a 24 hour period. The urine was then analyzed for drug levels and converted to micrograms urine excreted per 24 hours. The compounds were administered in a 50/30/20 propylene glycol/ethanol/water vehicle.
# [3] = in vivo hair growth assay using rats (shaved hair weighed every seven days); conditions: for Hair Growth: mean
# Description: The 5-fluoro minoxidil compounds were evaluated for hair growth in an in vivo hair growth assay using rats. Each rat is dosed with vehicle and drug, 200-500 microliters per day, 5 days per week. Every seven days the treated areas are shaved and the hair removed is weighed to compare normal untreated hair growth to the drug treated hair growth.
# [4] = cardiovascular effects in vivo in conscious beagle dogs (mean arterial pressure, heart rate); conditions: 1.5 mg/kg; N=1; FIG. 2; 5-fluoro minoxidil compared to minoxidil
# Description: The 5-fluoro minoxidil compounds were evaluated for cardiovascular effects in an in vivo test with beagle dogs. This test procedure is described in Humprey SJ, Zins GR, Whole Body and Regional Hemodynamic Effects of Minoxidil in the Conscious Dog, J. Card, Pharm. 6:979-88 (1984) and in Humprey, S.J., Zins, G.R., The Effects of Indomethacin on the Systemic and Regional Vasodilator Responses to Minoxidil in the Conscious Dog, Chem. Path. & Pharm. 59:1 3-20 (1988). Experiments were conducted using a radiolabeled tracer microspheres technique, Wagner NH et al., Studies of the Circulation with Radioactive Microspheres, Invest. Radiol. 4:374-86 (1969), with conscious beagle dogs. The results of a rapid evaluation (N=1) of the 5-fluoro minoxidil compound compared to minoxidil are presented in FIG. 1 change in Mean Arterial Pressure versus Time at the doses indicated and FIG. 2 Changes in Heart Rate versus Time at the doses indicated.
AVERAGE of total micrograms excreted [2] [MICROGRAMS],Structure (SMILES),Hair Growth (cumulative change in hair weight from baseline) [1],transdermal transport properties versus unsubstituted minoxidil ([2]; in words),TOTAL MICROGRAMS EXCRETED [2],"absorption versus minoxidil ([2]; transdermal, rats, in words)","Hair Growth ([3]; Table I, 1 mM, topical, vehicle 50/30/20 propylene glycol/ethanol/water, vehicle +0.527 ± 0.081)","Hair Growth ([3]; Table I, 5 mM, topical, vehicle 50/30/20 propylene glycol/ethanol/water, vehicle +0.527 ± 0.081)","Hair Growth ([3]; Table I, 25 mM, topical, vehicle 50/30/20 propylene glycol/ethanol/water, vehicle +0.527 ± 0.081)","Hair Growth ([3]; Table II, 25 mM 5-fluoro-minoxidil in 50/30/20 propylene glycol/ethanol/water, vehicle +0.528)",change in Heart Rate [4],statistical difference (p) between the two agents in level of hair growth stimulation ([3]; 100 mM minoxidil vs 25 mM 5-fluoro-minoxidil),"Hair Growth ([3]; Table II, 100 mM minoxidil in 100% PG (propylene glycol), 100% PG alone +0.487)"
1427,"Nc1nc(N2CCCCC2)c(F)c(N)[n+]1[O-] [5-fluoro minoxidil, 5-Fluoro-6-piperidinyl-2,4-pyrimidinediamine, 3-Oxide]",+14.8 ± 3.1 mg,superior transdermal transport properties over unsubstituted minoxidil,1229 MICROGRAMS and 1132 MICROGRAMS and 1921 MICROGRAMS,superior absorption over the minoxidil control,+0.609 ± 0.083 mg/in^2 /day,+0.760 ± 0.153 mg/in^2 /day,+0.952 ± 0.149 mg/in^2 /day,+0.938 mg/in^2 /day,,,
454,"Nc1cc(N2CCCCC2)nc(N)[n+]1[O-] [Minoxidil, reference compound]",,,354 MICROGRAMS and 358 MICROGRAMS and 651 MICROGRAMS,,,,,,increases in heart rate,no statistical difference,+1.065 mg/in^2 /day
